Data: patent US5817818A, “Androstenones” (Glaxo Wellcome Inc., priority 1996, dated 1998)

Columns and labels:
Assay type in all cases: biochemical
[1] = molecular target: T1, human type 1 5α-reductase (Homo sapiens, UniProt P18405); experiment: Inhibition of human type 1 steroid 5α-reductase (microsomes; testosterone to DHT conversion); settings: 10 min preincubation, pH 7.0, 100 nM testosterone, 10-120 min, 1 mM NADPH; read-out: IC50 Human Type 1 5AR
T1 construct: made in house; host or cells: Sf9 insect cells, recombinant baculovirus; microsomes
T1 sequence (P18405 1-259): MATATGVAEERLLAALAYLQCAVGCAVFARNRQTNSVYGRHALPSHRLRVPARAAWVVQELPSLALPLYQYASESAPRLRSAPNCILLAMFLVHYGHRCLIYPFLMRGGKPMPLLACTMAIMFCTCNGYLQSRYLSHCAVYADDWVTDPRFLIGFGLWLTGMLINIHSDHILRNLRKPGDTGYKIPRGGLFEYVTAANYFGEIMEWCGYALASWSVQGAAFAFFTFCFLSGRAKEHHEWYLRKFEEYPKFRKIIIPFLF
Experimental: (§1) Enzyme activities may be determined using microsomes derived from: 1) prostate tissue from benign prostatic hyperplasia (BPH) patients; 2) recombinant baculovirus infected SF9 cells that express human type 1 5α-reductase; or 3) recombinant baculovirus infected SF9 cells that express human type 2 5α-reductase. Microsomes were prepared by homogenization of the tissue or cells, followed by differential centrifugation of the homogenate. Microsome extracts were incubated with varying concentrations of [1,2,6,7-^3 H]-testosterone, 1 mM NADPH, and varying amounts of the compounds of formula (I,) i.e. a test compound, in buffer containing a NADPH regenerating system capable of maintaining NADPH concentrations for a period of time within the range 0.5-240 minutes. Corresponding incubations were carried out with no test compound as a control study.
(§2) For type 1 IC50 measurements, assay components except testosterone were preincubated for 10 minutes at pH 7.0, and following the addition of 100 nM testosterone the assays were allowed to proceed for 10-120 minutes. For type 2 IC50 measurements, assay components except testosterone were preincubated for 20 minutes at pH 6.0, and following the addition of 8 nM testosterone the assays were allowed to proceed for 20-40 minutes. The percentage of conversion of testosterone to DHT in the presence of test compounds compared to the corresponding conversion in the control study was estimated using high performance liquid chromatography (HPLC) with radiochemical detection.

[2] = molecular target: T2, human type 2 5α-reductase (Homo sapiens, UniProt P31213); experiment: Inhibition of human type 2 steroid 5α-reductase (microsomes; testosterone to DHT conversion); settings: 20 min preincubation, pH 6.0, 8 nM testosterone, 20-40 min, 1 mM NADPH; read-out: IC50 Human Type 2 5AR
T2 construct: made in house; host or cells: Sf9 insect cells, recombinant baculovirus; microsomes
T2 sequence (P31213 1-254): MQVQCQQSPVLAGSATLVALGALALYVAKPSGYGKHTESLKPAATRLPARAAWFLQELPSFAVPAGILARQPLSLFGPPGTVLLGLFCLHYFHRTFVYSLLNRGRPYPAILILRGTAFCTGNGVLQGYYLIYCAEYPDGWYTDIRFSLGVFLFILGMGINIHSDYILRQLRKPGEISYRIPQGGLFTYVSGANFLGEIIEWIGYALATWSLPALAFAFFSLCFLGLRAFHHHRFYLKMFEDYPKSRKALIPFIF
Experimental: as §1, §2

[3] = molecular target: T3, Human Adrenal 3BHSD (Homo sapiens, UniProt P26439); experiment: Inhibition of human adrenal 3β-hydroxy-Δ^5-steroid dehydrogenase/3-keto-Δ^5-steroid isomerase (3BHSD) (microsomes; DHEA to androstenedione conversion); settings: 1 mM NAD+, pH 7.5, 1 to 60 minutes
T3 construct: microsomes derived from human adrenal tissues; from tissue; host or cells: human adrenal tissue, microsomes
T3 sequence (P26439 1-372): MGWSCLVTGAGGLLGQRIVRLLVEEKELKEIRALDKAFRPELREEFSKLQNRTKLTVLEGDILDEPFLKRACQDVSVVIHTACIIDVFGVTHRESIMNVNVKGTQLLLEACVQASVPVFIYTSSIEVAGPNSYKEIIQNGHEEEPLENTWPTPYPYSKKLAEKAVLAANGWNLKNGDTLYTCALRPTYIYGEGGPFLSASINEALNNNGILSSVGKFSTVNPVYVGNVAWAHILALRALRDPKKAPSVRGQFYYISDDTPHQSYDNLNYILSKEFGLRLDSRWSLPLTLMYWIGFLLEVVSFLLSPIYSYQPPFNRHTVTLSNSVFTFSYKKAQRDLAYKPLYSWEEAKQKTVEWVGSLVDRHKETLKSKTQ
Experimental: Enzyme activities are measured using microsomes derived from human adrenal tissues. Microsomes were prepared by homogenization of the tissue followed by differential centrifugation of the homogenate. Microsome extracts were incubated with varying concentrations of dehydroepiandrosterone (DHEA), 1 mM NAD+, and varying amounts of the compounds of Formula (I), i.e. a test compound, in pH 7.5 buffer for a period of time within the range of 1 to 60 minutes. Corresponding incubations were carried out with no test compound as a control study. The percentage of conversion of DHEA to androstenedione in the presence of test compounds compared to the corresponding conversion in the control study was estimated using HPLC with radiochemical detection.

IC50 [1] [nM]	IC50 [2] [nM]	Ki [3] [nM]	Compound
1 to 10	< 1	> 1000	C[C@]12C=CC(=O)N[C@@H]1CC[C@@H]1[C@@H]2CC[C@]2(C)[C@@H](C(=O)NC3(c4ccc(Cl)cc4)CCCCC3)CC[C@@H]12 [Compound 6, 17β-N-1-(4-Chlorophenyl)cyclohexylcarbamoyl-4-aza-5α-androst-1-en-3-one]
1 to 10	< 1	> 1000	C[C@]12CCC(=O)N[C@@H]1CC[C@@H]1[C@@H]2CC[C@]2(C)[C@@H](C(=O)NC3(c4ccc(Cl)cc4)CCCC3)CC[C@@H]12 [Compound 1, 17β-N-1-(4-Chlorophenyl)cyclopentylcarbamoyl-4-aza-5α-androstan-3-one]
1 to 10	< 1	> 1000	COc1ccc(C2(NC(=O)[C@H]3CC[C@H]4[C@@H]5CC[C@H]6NC(=O)C=C[C@]6(C)[C@H]5CC[C@]34C)CCCC2)cc1 [Compound 8, 17β-N-1-(4-Methoxyphenyl)cyclopentylcarbamoyl-4-aza-5α-androst-1-en-3-one]
< 1	< 1	> 1000	CC(C)(C)c1ccc(C2(NC(=O)[C@H]3CC[C@H]4[C@@H]5CC[C@H]6NC(=O)C=C[C@]6(C)[C@H]5CC[C@]34C)CCSCC2)cc1 [Compound 20, 17β-N-4-(4-t-Butylphenyl)tetrahydrothiopyranylcarbamoyl-4-aza-5α-androst-1-en-3-one]
< 1	< 1	> 1000	CCC1(CC)CC1(NC(=O)[C@H]1CC[C@H]2[C@@H]3CC[C@H]4NC(=O)C=C[C@]4(C)[C@H]3CC[C@]12C)c1ccc(-c2ccccc2)cc1 (stereo partly drawn) [Compound 21, 17β-N-1-(4-Biphenyl)-2,2-diethylcyclopropylcarbamoyl-4-aza-5α-androst-1-en-3-one]
1 to 10	< 1	> 1000	CC(C)(C)c1ccc(C2(NC(=O)[C@H]3CC[C@H]4[C@@H]5CC[C@H]6NC(=O)C=C[C@]6(C)[C@H]5CC[C@]34C)CCCCC2)cc1 [Compound 5, 17β-N-1-(4-t-Butylphenyl)cyclohexylcarbamoyl-4-aza-5α-androst-1-en-3-one]
< 1	< 1	10 to 10000	CN1C(=O)CC[C@]2(C)[C@H]3CC[C@]4(C)[C@@H](C(=O)NC5(c6ccc(Cl)cc6)CCCC5)CC[C@H]4[C@@H]3CC[C@@H]12 [Compound 2, 17β-N-1-(4-Chlorophenyl)cyclopentylcarbamoyl-4-methyl-4-aza-5α-androstan-3-one]
1 to 10	< 1	> 1000	C[C@]12C=CC(=O)N[C@@H]1CC[C@@H]1[C@@H]2CC[C@]2(C)[C@@H](C(=O)NC3(c4cccc(C(F)(F)F)c4)CCCC3)CC[C@@H]12 [Compound 19, 17β-N-1-(3-Trifluoromethylphenyl)cyclopentylcarbamoyl-4-aza-5α-androst-1-en-3-one]
1 to 10	1 to 10	> 1000	C[C@H]1C[C@H]2NC(=O)C=C[C@]2(C)[C@H]2CC[C@]3(C)[C@@H](C(=O)Nc4cc(C(F)(F)F)ccc4C(C)(C)C)CC[C@H]3[C@H]12 [Compound 31, 17β-N-(2-t-Butyl-5-trifluoromethyl)phenylcarbamoyl-4-aza-7β-methyl-5α-androst-1-en-3-one]
1 to 10	< 1	> 1000	CC(C)(C)c1ccc(C2(NC(=O)[C@H]3CC[C@H]4[C@@H]5CC[C@H]6NC(=O)C=C[C@]6(C)[C@H]5CC[C@]34C)C3CCCC2CCC3)cc1 (stereo partly drawn) [Compound 33, 17β-N-9-(4-t-Butylphenyl)bicyclo[3.3.1]nonylcarbamoyl-4-aza-5α-androst-1-en-3-one]
1 to 10	< 1	> 1000	C[C@]12CCC(=O)N[C@@H]1CC[C@@H]1[C@@H]2CC[C@]2(C)[C@@H](C(=O)Nc3cc(C(F)(F)F)ccc3C(F)(F)F)CC[C@@H]12 [Compound 22, 17β-N-(2,5-bis(Trifluoromethyl))phenylcarbamoyl-4-aza-5α-androstan-3-one]
1 to 10	< 1	> 1000	C[C@]12C=CC(=O)N[C@@H]1CC[C@@H]1[C@@H]2CC[C@]2(C)[C@@H](C(=O)NC3(c4ccc(F)cc4)CCCCC3)CC[C@@H]12 [Compound 10, 17β-N-1-(4-Fluorophenyl)cyclohexylcarbamoyl-4-aza-5α-androst-1-en-3-one]
< 1	< 1	10 to 10000	CN1C(=O)CC[C@]2(C)[C@H]3CC[C@]4(C)[C@@H](C(=O)Nc5cc(C(F)(F)F)ccc5C(C)(C)C)CC[C@H]4[C@@H]3CC[C@@H]12 [Compound 26, 17β-N-(2-t-Butyl-5-trifluoromethyl)phenylcarbamoyl-4-methyl-4-aza-5α-androstan-3-one]
1 to 10	< 1	> 1000	CC(C)(C)c1ccc(C2(NC(=O)[C@H]3CC[C@H]4[C@@H]5CC[C@H]6NC(=O)C=C[C@]6(C)[C@H]5CC[C@]34C)CCCCCC2)cc1 [Compound 13, 17β-N-1-(4-t-Butylphenyl)cycloheptylcarbamoyl-4-aza-5α-androst-1-en-3-one]
< 1	< 1	10 to 10000	CN1C(=O)CC[C@]2(C)[C@H]3CC[C@]4(C)[C@@H](C(=O)Nc5cc(C(F)(F)F)ccc5C(F)(F)F)CC[C@H]4[C@@H]3CC[C@@H]12 [Compound 23, 17β-N-(2,5-bis(Trifluoromethyl))phenylcarbamoyl-4-methyl-4-aza-5α-androstan-3-one]
1 to 10	< 1	> 1000	COc1ccc(C2(NC(=O)[C@H]3CC[C@H]4[C@@H]5CC[C@H]6NC(=O)C=C[C@]6(C)[C@H]5CC[C@]34C)CCCCC2)cc1 [Compound 11, 17β-N-1-(4-Methoxyphenyl)cyclohexylcarbamoyl-4-aza-5α-androst-1-en-3-one]
< 1	< 1	10 to 10000	CN1C(=O)CC[C@]2(C)[C@H]3CC[C@]4(C)[C@@H](C(=O)Nc5cc(C(C)(C)C)ccc5C(C)(C)C)CC[C@H]4[C@@H]3CC[C@@H]12 [Compound 29, 17β-N-(2,5-Di-t-butyl)phenylcarbamoyl-4-methyl-4-aza-5α-androstan-3-one]
1 to 10	< 1	> 1000	C[C@]12C=CC(=O)N[C@@H]1CC[C@@H]1[C@@H]2CC[C@]2(C)[C@@H](C(=O)NC3(c4ccc(Cl)cc4Cl)CC3)CC[C@@H]12 [Compound 15, 17β-N-1-(2,4-Dichlorophenyl)cyclopropylcarbamoyl-4-aza-5α-androst-1-en-3-one]
1 to 10	< 1	> 1000	C[C@]12C=CC(=O)N[C@@H]1CC[C@@H]1[C@@H]2CC[C@]2(C)[C@@H](C(=O)NC3(c4ccc(F)cc4)CCCC3)CC[C@@H]12 [Compound 9, 17β-N-1-(4-Fluorophenyl)cyclopentylcarbamoyl-4-aza-5α-androst-1-en-3-one]
1 to 10	< 1	> 1000	C[C@]12C=CC(=O)N[C@@H]1CC[C@@H]1[C@@H]2CC[C@]2(C)[C@@H](C(=O)NC3(c4ccc(C(F)(F)F)cc4)CCCC3)CC[C@@H]12 [Compound 7, 17β-N-1-(4-Trifluoromethylphenyl)cyclopentylcarbamoyl-4-aza-5α-androst-1-en-3-one]
